From US20250353830A1, “NOVEL COMPOUNDS” (Hoffmann-La Roche Inc., priority 2022, published 2025) come the findings set out here.

The target in assay [1] is T1, NLRP3 (Homo sapiens, UniProt Q96P20). As to the kind of experiment: THP-1 cells pyroptosis assay (LPS priming, nigericin, resazurin read-out). The format is cell-based. Also noted: Seed THP-1 cells (25,000 cells/well) containing 1.0 μg/ml LPS; host or cells: THP-1 cells, LPS-primed, nigericin-stimulated. The note with it: 1 μg/ml LPS, 3 hours compound, 5 μM nigericin 1 hr. How it is done: THP-1 cells (ATCC #TIB-202) were grown in RPMI containing L-glutamine (Gibco #11835) supplemented with 1 mM sodium pyruvate (Sigma #S8636) and penicillin (100 units/ml)/streptomycin (0.1 mg/ml) (Sigma #P4333) in 10% Fetal Bovine Serum (FBS) (Sigma #F0804). The cells were routinely passaged and grown to confluency (˜10^6 cells/ml). On the day of the experiment, THP-1 cells were harvested and resuspended into RPMI medium (without FBS). The cells were then counted and viability (>90%) checked by Trypan blue (Sigma #T8154). Appropriate dilutions were made to give a concentration of 625,000 cells/ml. To this diluted cell solution was added LPS (Sigma #L4524) to give a 1 μg/ml Final Assay Concentration (FAC). 40 μl of the final preparation was aliquoted into each well of a 96-well plate. The plate thus prepared was used for compound screening.
The following method step-by-step assay was followed for compound screening. • 1. Seed THP-1 cells (25,000 cells/well) containing 1.0 μg/ml LPS in 40 μl of RPMI medium (without FBS) in 96-well, black walled, clear bottom cell culture plates coated with poly-D-lysine (VWR #734-0317) • 2. Add 5 μl compound (8 points half-log dilution, with 10 μM top dose) or vehicle (DMSO 0.1% FAC) to the appropriate wells • 3. Incubate for 3 hours at 37° C., 5% CO2 • 4. Add 5 μl nigericin (Sigma #N7143) (FAC 5 μM) to all wells • 5. Incubate for 1 hr at 37° C., 5% CO2 • 6. At the end of the incubation period, spin plates at 300×g for 3 mins and remove supernatant • 7. Then add […] of resazurin (Sigma #R7017) (FAC 100 μM resazurin in RPMI medium without FBS) and incubate plates for a further 1-2 hours at 37° C. and 5% CO2 • 8. Plates were read in an Envision reader at Ex 560 nm and Em 590 nm • 9. IC50 data is fitted to a non-linear regression equation (log inhibitor vs response-variable slope 4-parameters)

Assay [2] has as its target T1, NLRP3. As to the kind of experiment: Human whole blood IL-1β release assay (LPS, nigericin, AlphaLisa). The format is cell-based. Set-up: Plate out 80 μl of whole blood containing 1 μg/ml of LPS; from tissue; host or cells: human whole blood from healthy donors, LPS-primed, nigericin-stimulated. The note with it: 1 μg/ml LPS, 3 hours compound, 10 μM nigericin 1 hr, IL-1β in supernatant. How it is done:
For systemic delivery, the ability to inhibit NLRP3 when the compounds are present within the bloodstream is of great importance. For this reason, the NLRP3 inhibitory activity of a number of compounds in human whole blood was investigated in accordance with the following protocol.
Human whole blood in Li-heparin tubes was obtained from healthy donors from a volunteer donor panel. • 1. Plate out 80 μl of whole blood containing 1 μg/ml of LPS in 96-well, clear bottom cell culture plate (Corning #3585) • 2. Add 10 μl compound (8 points half-log dilution with 10 μM top dose) or vehicle (DMSO 0.1% FAC) to the appropriate wells • 3. Incubate for 3 hours at 37° C., 5% CO2 • 4. Add 10 μl nigericin (Sigma #N7143) (10 μM FAC) to all wells • 5. Incubate for 1 hr at 37° C., 5% CO2 • 6. At the end of the incubation period, spin plates at 300×g for 5 mins to pellet cells and remove 20 μl of supernatant and add to 96-well v-bottom plates for IL-1β analysis (note: these plates containing the supernatants can be stored at −80° C. to be analysed at a later date) • 7. IL-1β was measured according to the manufacturer protocol (Perkin Elmer-AlphaLisa IL-1 Kit AL220F-5000) • 8. IC50 data is fitted to a non-linear regression equation (log inhibitor vs response-variable slope 4-parameters)
(Bead proximity is the source of the signal in Alpha formats.)

T1 sequence (Q96P20 whole entry): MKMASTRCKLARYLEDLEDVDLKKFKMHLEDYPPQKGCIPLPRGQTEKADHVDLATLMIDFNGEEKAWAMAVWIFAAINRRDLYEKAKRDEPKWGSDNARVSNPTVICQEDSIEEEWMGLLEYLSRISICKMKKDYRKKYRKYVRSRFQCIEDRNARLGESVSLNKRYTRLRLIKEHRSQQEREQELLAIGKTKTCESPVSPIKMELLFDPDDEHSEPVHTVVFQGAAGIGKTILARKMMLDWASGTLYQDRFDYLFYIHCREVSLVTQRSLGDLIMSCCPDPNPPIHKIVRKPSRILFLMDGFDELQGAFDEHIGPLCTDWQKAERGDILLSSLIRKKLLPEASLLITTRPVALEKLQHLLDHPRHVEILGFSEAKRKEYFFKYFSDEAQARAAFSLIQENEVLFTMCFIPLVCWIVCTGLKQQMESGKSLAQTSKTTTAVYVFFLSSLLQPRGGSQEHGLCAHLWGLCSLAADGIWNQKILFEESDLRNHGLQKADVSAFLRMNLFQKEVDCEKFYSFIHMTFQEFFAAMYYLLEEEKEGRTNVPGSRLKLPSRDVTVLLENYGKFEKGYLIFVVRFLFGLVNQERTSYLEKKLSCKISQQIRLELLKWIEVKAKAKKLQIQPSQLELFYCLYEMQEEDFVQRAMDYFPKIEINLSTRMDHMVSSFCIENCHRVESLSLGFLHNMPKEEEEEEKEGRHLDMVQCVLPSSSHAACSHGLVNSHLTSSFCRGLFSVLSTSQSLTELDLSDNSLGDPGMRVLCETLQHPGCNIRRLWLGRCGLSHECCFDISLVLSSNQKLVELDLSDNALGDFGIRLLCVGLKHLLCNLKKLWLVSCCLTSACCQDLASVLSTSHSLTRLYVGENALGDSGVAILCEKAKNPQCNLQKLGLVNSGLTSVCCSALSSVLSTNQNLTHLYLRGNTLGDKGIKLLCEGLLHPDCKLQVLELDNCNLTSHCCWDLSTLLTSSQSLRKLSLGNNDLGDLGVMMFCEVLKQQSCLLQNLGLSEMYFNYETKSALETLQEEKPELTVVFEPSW

In general, IC50 refers to the concentration needed to halve the response being measured. Turning to `CCN1CCC[C@@H](Nc2cc(C)c(-c3ccc4c(C#N)c[nH]c4c3)nn2)C1` [Example 7, 6-[6-[[(3R)-1-Ethyl-3-piperidyl]amino]-4-methyl-pyridazin-3-yl]-1H-indole-3-carbonitrile], the 50% inhibitory concentration (IC50) at NLRP3 [1] was found to be 133 nM.

For the compound `CCN1CCC[C@@H](Nc2ccc(-c3cc4[nH]ccc4cc3C)nn2)C1` [Example 16, N-[(3R)-1-Ethyl-3-piperidyl]-6-(5-methyl-1H-indol-6-yl)pyridazin-3-amine], the 50% inhibitory concentration (IC50) at NLRP3 [2] came out at 113 nM; at NLRP3 [1], 21 nM. On to `Cc1cc(N[C@@H]2CCCN(C)C2)nnc1-c1ccc2c(F)c[nH]c2c1` [Example 9, 6-(3-Fluoro-1H-indol-6-yl)-5-methyl-N-[(3R)-1-methyl-3-piperidyl]pyridazin-3-amine], for which the IC50 came out at 26.5 nM against NLRP3 [2] and 4.9 nM at NLRP3 [1]. Regarding `CCN1CCC[C@@H](Nc2cc(C)c(-c3ccc4cc[nH]c4c3)nn2)C1` [Example 1, N-[(3R)-1-Ethyl-3-piperidyl]-6-(1H-indol-6-yl)-5-methyl-pyridazin-3-amine], the values for the IC50 at NLRP3 [2] and on NLRP3 [1] were 17.1 nM and 5.1 nM, respectively. For `CCc1cc(N[C@@H]2CCCN(CC)C2)nnc1-c1ccc2c(F)c[nH]c2c1` [Example 12, 5-Ethyl-N-[(3R)-1-ethyl-3-piperidyl]-6-(3-fluoro-1H-indol-6-yl)pyridazin-3-amine] the same measures were 25.4 nM and 18.3 nM. As for `CCN1CCC[C@@H](Nc2cc(C)c(-c3cc4[nH]ccc4cc3F)nn2)C1` [Example 3, N-[(3R)-1-ethyl-3-piperidyl]-6-(5-fluoro-1H-indol-6-yl)-5-methyl-pyridazin-3-amine], the IC50 on NLRP3 [2] turned out to be 48.6 nM; on NLRP3 [1], 9.2 nM. For `CCN1CCC[C@@H](Nc2nnc(-c3ccc4cc[nH]c4c3)c3c2cnn3C)C1` [Example 15, N-[(3R)-1-Ethyl-3-piperidyl]-7-(1H-indol-6-yl)-1-methyl-pyrazolo[3,4-d]pyridazin-4-amine] the same measures were 52 nM and 27 nM. For `CCN1CCC[C@@H](Nc2cc(C(F)(F)F)c(-c3ccc4c(F)c[nH]c4c3)nn2)C1` [Example 11, N-[(3R)-1-Ethyl-3-piperidyl]-6-(3-fluoro-1H-indol-6-yl)-5-(trifluoromethyl)pyridazin-3-amine] the same measures were 44.1 nM and 5.1 nM.

In the case of `CCN1CCC[C@@H](Nc2cc(C)c(-c3ccc4c(F)c[nH]c4c3)nn2)C1` [Example 2, N-[(3R)-1-Ethyl-3-piperidyl]-6-(3-fluoro-1H-indol-6-yl)-5-methyl-pyridazin-3-amine], the figures for the 50% inhibitory concentration (IC50) at NLRP3 [2] and on NLRP3 [1] were 9.5 nM and 2.7 nM, respectively. For `CCN1CCC[C@@H](Nc2nnc(-c3ccc4c(F)c[nH]c4c3)c(C)n2)C1` [Example 14, N-[(3R)-1-Ethyl-3-piperidyl]-6-(3-fluoro-1H-indol-6-yl)-5-methyl-1,2,4-triazin-3-amine] the same measures were 43.2 nM and 55.9 nM. For `CCN1CCC[C@@H](Nc2cc(C)c(-c3ccc4cc(C)[nH]c4c3)nn2)C1` [Example 6, N-[(3R)-1-Ethyl-3-piperidyl]-5-methyl-6-(2-methyl-1H-indol-6-yl)pyridazin-3-amine] the same measures were 56.2 nM and 12.3 nM. Turning to `Cc1cc(N[C@H]2C[C@@](C)(O)C2)nnc1-c1ccc2c(F)c[nH]c2c1` [Example 17, 3-[[6-(3-Fluoro-1H-indol-6-yl)-5-methyl-pyridazin-3-yl]amino]-1-methyl-cyclobutanol], on NLRP3 [1], the half-inhibitory concentration (IC50) turned out to be 493 nM.

For the compound `CCN1CCC[C@@H](Nc2cc(C)c(-c3ccc4cc[nH]c4c3F)nn2)C1` [Example 10, N-[(3R)-1-ethyl-3-piperidyl]-6-(7-fluoro-1H-indol-6-yl)-5-methyl-pyridazin-3-amine], the results for the IC50 against NLRP3 [2] and on NLRP3 [1] were 45.1 nM and 22.6 nM, respectively. `CCN1CCC[C@@H](Nc2nnc(-c3ccc4cc[nH]c4c3)c(C)n2)C1` [Example 13, N-[(3R)-1-Ethyl-3-piperidyl]-6-(1H-indol-6-yl)-5-methyl-1,2,4-triazin-3-amine]: the IC50 on NLRP3 [2] is 28.6 nM; at NLRP3 [1], 47.3 nM.

On to `Cc1cc(N2CC[C@H]3CCN(C)C[C@H]32)nnc1-c1ccc2c(F)c[nH]c2c1` [Example 18B, (3aR,7aS)-1-[6-(3-fluoro-1H-indol-6-yl)-5-methyl-pyridazin-3-yl]-6-methyl-3,3a,4,5,7,7a-hexahydro-2H-pyrrolo[2,3-c]pyridine], for which the half-maximal inhibitory concentration (IC50) amounted to 179 nM on NLRP3 [2] and 37 nM on NLRP3 [1]. In the case of `Cc1cc(N2CC[C@@H]3CCN(C)C[C@@H]32)nnc1-c1ccc2c(F)c[nH]c2c1` (single isomer, unassigned) [Example 18A], the IC50 is 31 nM against NLRP3 [2] and 2 nM on NLRP3 [1]. In the case of `CCN1CCC[C@@H](Nc2cc(C)c(-c3ccc4cc(C#N)[nH]c4c3)nn2)C1` [Example 8, 6-[6-[[(3R)-1-Ethyl-3-piperidyl]amino]-4-methyl-pyridazin-3-yl]-1H-indole-2-carbonitrile], the half-maximal inhibitory concentration (IC50) on NLRP3 [1] worked out at 123 nM.

In the case of `CCN1CCC[C@@H](Nc2cc(C)c(-c3ccc4c(C)c[nH]c4c3)nn2)C1` [Example 4, N-[(3R)-1-Ethyl-3-piperidyl]-5-methyl-6-(3-methyl-1H-indol-6-yl)pyridazin-3-amine], the IC50 against NLRP3 [2] came to 234 nM; at NLRP3 [1], 43.7 nM.
